Results published in US20120189558A1, “ANTI-BACTERIAL COMPOSITIONS COMPRISING EXTRACTS OF EREMOPHILA LONGIFOLIA AND METHODS FOR USE OF SAME” (priority 2009, published 2012).
In brackets after ≈: the same amount, converted by molar mass.

Assays:
[1] = test system: Burkholderia cepacia - antibiotic-susceptible clinical isolate; assay: MIC by CLSI microbroth dilution; type: cell-based; settings: isolate GN14
Method: (§1) A study was carried out to determine the minimum inhibitory concentration (MIC) for Emubush extract and a comparator against a panel of isolates using Clinical and Laboratory Standards Institute (CLSI) broth methodology.
(§2) The Emubush extract was prepared by dissolving 95.2 mg in ethanol. The solvent was then evaporated off and the material re-dissolved in ethanol at room temperature.
(§3) MIC was determined by microbroth dilution following CLSI methodology. [CLSI Methods for Dilution Antimicrobial Susceptibility Tests for Bacteria That Grow Aerobically; Approved Standard-Eighth Edition. CLSI Document M07-A8. CLSI, Wayne, Pa. 19087-1898, USA, 2009].

[2] = test system: Pseudomonas aeruginosa - multi-drug resistant clinical isolate; assay: MIC by CLSI microbroth dilution; type: cell-based; settings: isolate GN11
Method: as §1, §2, §3

[3] = test system: Serratia marcescens - antibiotic-susceptible clinical isolate; assay: MIC by CLSI microbroth dilution; type: cell-based; settings: isolate GN08
Method: as §1, §2, §3

[4] = test system: Serratia marcescens - multi-drug resistant clinical isolate; assay: MIC by CLSI microbroth dilution; type: cell-based; settings: isolate GN09
Method: as §1, §2, §3

[5] = test system: Staphylococcus aureus - methicillin-resistant clinical isolate; assay: MIC by CLSI microbroth dilution; type: cell-based; settings: isolate GP4
Method: as §1, §2, §3

[6] = test system: Staphylococcus aureus ATCC 29213 - antibiotic-susceptible type strain; assay: MIC by CLSI microbroth dilution; type: cell-based; settings: ATCC29213, isolate GP1
Method: as §1, §2, §3

[7] = test system: Staphylococcus aureus ATCC 43300 - methicillin-resistant type strain; assay: MIC by CLSI microbroth dilution; type: cell-based; settings: ATCC43300, isolate GP3
Method: as §1, §2, §3

[8] = test system: Staphylococcus epidermidis - antibiotic susceptible clinical isolate; assay: MIC by CLSI microbroth dilution; type: cell-based; settings: isolate GP7
Method: as §1, §2, §3

[9] = test system: Staphylococcus epidermidis - methicillin-resistant clinical isolate; assay: MIC by CLSI microbroth dilution; type: cell-based; settings: isolate GP8
Method: as §1, §2, §3

[10] = test system: Stenotrophomonas maltophilia - antibiotic-susceptible clinical isolate; assay: MIC by CLSI microbroth dilution; type: cell-based; settings: isolate GN12
Method: as §1, §2, §3

[11] = test system: Streptococcus pneumoniae - multi-drug resistant clinical isolate; assay: MIC by CLSI microbroth dilution; type: cell-based; settings: isolate GP24
Method: as §1, §2, §3

[12] = test system: Streptococcus pyogenes - antibiotic-susceptible clinical isolate; assay: MIC by CLSI microbroth dilution; type: cell-based; settings: isolate GP59
Method: as §1, §2, §3

[13] = test system: Stenotrophomonas maltophila - antibiotic-resistant clinical isolate; assay: MIC by CLSI microbroth dilution; type: cell-based, Stenotrophomonas maltophilia; settings: Stenotrophomonas sp. LMG 10879; isolate GN13
Method: as §1, §2, §3

[14] = test system: a selection of Streptococcus species; settings: isolated active compound; Hu et al., 2000; cited from earlier work
[15] = test system: Streptococcus mutans (969); assay: Plate-hole and disk diffusion assays; type: cell-based; settings: S. mutans, 2 mg/ml positive control, mean +/- SD of three plate-hole and three disk diffusion assays
Method: (§4) Plate-hole diffusion assays were used to test for antibacterial activity (Palombo and Semple, 2001). A pure colony of each culture was grown in BHI broth and 200 μL were added to 15 ml of molten BHI agar. The inoculated agar was gently mixed and transferred to a sterile petri dish. Once set and dried, a sterilised core-borer (6 mm diameter) was used to make wells in the agar, and 10 μL of plant extract were added into each well. One well on each plate was filled with neat solvent as a control. Disk diffusion assays were also used to test for antibacterial activity (Pennacchio et al., 2005). 10 μL of each extract and control were placed on sterile paper disks (6 mm diameter, Oxoid) and allowed to dry for 25 minutes. 100 μL of each overnight (ON) culture was spread on BHI agar and allowed to dry for 10 minutes. Disks were transferred to the agar surface. Both plate-hole and disk diffusion assays were incubated overnight at 37° C. in candle jars and were carried out in triplicate.

[16] = test system: S. sobrinus (6715-247); assay: Plate-hole and disk diffusion assays; type: cell-based, Streptococcus sobrinus; settings: 2 mg/ml positive control, mean +/- SD of three plate-hole and three disk diffusion assays
Method: as §4

[17] = test system: salivary bacteria biofilm; assay: Salivary bacteria artificial biofilm assay; type: cell-based, human; settings: 5 mg/ml, 1 hour treatment
Method: (§5) Artificial biofilm assays were performed based on the method of Alviano et al. (2008). Non-stimulated saliva was collected from a healthy donor and 20 μL was placed on sterile 0.22 μm Millipore membrane disks of 13 mm diameter, previously placed over BHI agar plates. Plates were incubated for 48 hours at 37° C. After biofilm growth, the disks were collected and each disk was placed inside a bottle containing 3 ml of stem extract (5 mg/ml or 10 mg/ml in ethanol), Milli-Q distilled water or ethanol for 1 hour at 37° C. with gentle shaking. Then, the disks were briefly washed with Milli-Q distilled water to remove the plant extract and unbound bacterial cells, and the biofilm was extracted by vortexing the disks in 1 ml of BHI broth. Immediately, serial dilutions were performed and 100 μL of each dilution were spread on BHI agar. The plates were incubated in candle jars for 48 hours at 37° C. and a viable count was performed. An S. mutans artificial biofilm assay was performed by repeating the above method except that a pure ON culture of S. mutans was grown on the membrane disks instead of salivary bacteria. Both this assay and the salivary assay were performed in duplicate.

[18] = test system: S. mutans biofilm; assay: S. mutans artificial biofilm assay; type: cell-based, Streptococcus mutans; settings: 5 mg/ml, 1 hour treatment
Method: as §5

In the case of `C[C@H]1COc2c(N3CCN(C)CC3)c(F)cc3c(=O)c(C(=O)O)cn1c23` [Levofloxacin], the MIC [1] was 1 µg/mL (≈ 2.77 µM), the MIC [2] was 4 µg/mL (≈ 11.1 µM) and the MIC [3] was 0.06 µg/mL (≈ 0.166 µM). For the same compound, the MIC [4] was 2 µg/mL (≈ 5.53 µM), the MIC [5] was 0.12 µg/mL (≈ 0.332 µM) and the MIC [6] was 0.25 µg/mL (≈ 0.692 µM). For the same compound, the MIC [7] was 0.12 µg/mL (≈ 0.332 µM), the MIC [8] was 0.12 µg/mL (≈ 0.332 µM) and the MIC [9] was 0.12 µg/mL (≈ 0.332 µM). For the same compound, the MIC [10] was 0.12 µg/mL (≈ 0.332 µM), the MIC [11] was 1 µg/mL (≈ 2.77 µM) and the MIC [12] was 0.5 µg/mL (≈ 1.38 µM). For the same compound, the MIC [13] was 2 µg/mL (≈ 5.53 µM).
In the case of `COc1ccc2cc3[n+](cc2c1OC)CCc1cc2c(cc1-3)OCO2` [berberine], the MIC [14] is listed as 13 to 20 µg/mL.
For `[H]/N=C(\N/C(=N/[H])NCCCCCCNC(=N)NC(=N)Nc1ccc(Cl)cc1)Nc1ccc(Cl)cc1` [Chlorhexidine, chlorhexidine], the “mean diameter of the growth inhibition zone” value [15] was 22.1 +/− 0.6 mm, the “mean diameter of the growth inhibition zone” value ([15]; listed as chlorhexidine) was 22.1+/−0.6 mm and the “mean diameter of the growth inhibition zone” value [16] was 20.5 +/− 0.6 mm. The “mean diameter of the growth inhibition zone” value ([16]; listed as chlorhexidine) was 20.5+/−0.6 mm, the “reduction in viable biofilm cells” value [17] was “greatest reduction in viable biofilm bacteria” and the “reduction in viable biofilm cells” value [18] was “greatest reduction in viable biofilm bacteria”.
